Data taken from US20250179103A1, “6-OXODECAHYDROPYRROLO[1,2-A][1,5]DIAZOCINE AND 6-OXODECAHYDRO-4H-PYRROLO[2,1-D][1,5]THIAZOCINE DERIVATIVES AS STAT3 AND STAT6 MODULATORS FOR THE TREATMENT OF CANCER AND INFLAMMATORY CONDITIONS” (Recludix Pharma, Inc., priority 2022, published 2025).

Legend:
[1] = test system: pY705-STAT3 in Peripheral Blood Mononuclear Cells (PBMC); assay: MSD-pSTAT-PBMC Assay (pSTAT3, IL-6 stimulated); format: cell-based, Human; settings: compound 3 hrs, then 10 ng/mL IL-6 for 10 min
Procedure, shortened: (§1)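 Human PBMCs were preincubated 3 h with compound, then stimulated 10 min with 10 ng/mL IL-6 (pY705-STAT3) or 1 ng/mL IL-4 (pY641-STAT6). Lysates were read by MSD sandwich immunoassay, capturing total STAT and detecting phospho-STAT. Signal was unstimulated-subtracted and DMSO-normalised, with variable-slope IC50 binned A–D.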

[2] = test system: pY641-STAT6 in Peripheral Blood Mononuclear Cells (PBMC); assay: MSD-pSTAT-PBMC Assay (pSTAT6, IL-4 stimulated); format: cell-based, Human; settings: compound 3 hrs, then 1 ng/mL IL-4 for 10 min
Procedure, shortened: as §1

Row | Structure (SMILES) | IC50 ([1]; Homo sapiens) [nM] | IC50 ([2]; Homo sapiens) [nM] | IC50 [1] [nM] | IC50 [2] [nM]
1 | CNC(=O)[C@@H]1CC[C@@H]2CCN(C(=O)c3n[nH]c4ccc(C)cc34)C[C@H](NC(=O)c3ccc4ccc(C(F)(F)P(=O)(OCCSC(=O)CC(C)C)OCCSC(=O)CC(C)C)cc4c3)C(=O)N21 [Compound 329, S,S′-((((difluoro(7-(((5S,8S,10aR)-3-(5-methyl-1H-indazole-3-carbonyl)-8-(methylcarbamoyl)-6-oxodecahydropyrrolo[1,2-a][1,5]diazocin-5-yl)carbamoyl)naphthalen-2-yl)methyl)phosphoryl)bis(oxy))bis(ethane-2,1-diyl)) bis(3-methylbutanethioate)] | 1000 to 3000 | ≤ 100 | – | –
2 | Cc1ccc2[nH]nc(C(=O)N3CC[C@H]4CC[C@@H](C(=O)N(C)C)N4C(=O)[C@@H](NC(=O)c4ccc5ccc(C(F)(F)P(=O)(OCCSC(=O)CC(C)C)OCCSC(=O)CC(C)C)cc5c4)C3)c2c1 [Compound 331, S,S′-(((((7-(((5S,8S,10aR)-8-(dimethylcarbamoyl)-3-(5-methyl-1H-indazole-3-carbonyl)-6-oxodecahydropyrrolo[1,2-a][1,5]diazocin-5-yl)carbamoyl)naphthalen-2-yl)difluoromethyl)phosphoryl)bis(oxy))bis(ethane-2,1-diyl))bis(3-methylbutanethioate)] | > 3000 | ≤ 100 | – | –
3 | CCCC(=O)SCCOP(=O)(OCCSC(=O)CCC)C(F)(F)c1ccc2ccc(C(=O)N[C@H]3CN(C(C)=O)CC[C@H]4CC[C@@H](C(=O)N5CC(c6cc[nH]c(=O)c6)CC56CC6)N4C3=O)cc2c1 (stereo partly drawn) [Compound 332, S,S′-(((((7-(((5S,8S,10aR)-3-acetyl-6-oxo-8-(6-(2-oxo-1,2-dihydropyridin-4-yl)-4-azaspiro[2.4]heptane-4-carbonyl)decahydropyrrolo[1,2-a][1,5]diazocin-5-yl)carbamoyl)naphthalen-2-yl)difluoromethyl)phosphoryl)bis(oxy))bis(ethane-2,1-diyl))dibutanethioate] | > 3000 | ≤ 100 | – | –
4 | CCCC(=O)SCCOP(=O)(OCOC(=O)OC(C)C)C(F)(F)c1ccc2ccc(C(=O)N[C@H]3CCN(CC(F)F)C[C@H]4CC[C@@H](C(=O)N5CC(c6cc[nH]c(=O)c6)CC56CC6)N4C3=O)cc2c1 (stereo partly drawn) [Compound 334, S-(2-((((7-(((5S,8S,10aR)-2-(2,2-difluoroethyl)-6-oxo-8-(6-(2-oxo-1,2-dihydropyridin-4-yl)-4-azaspiro[2.4]heptane-4-carbonyl)decahydropyrrolo[1,2-a][1,4]diazocin-5-yl)carbamoyl)naphthalen-2-yl)difluoromethyl) (((isopropoxycarbonyl)oxy)methoxy)phosphoryl)oxy)ethyl)butanethioate] | 100 to 1000 | ≤ 100 | – | –
5 | CCCC(=O)SCCOP(=O)(OCCSC(=O)CCC)C(F)(F)c1ccc2ccc(C(=O)N[C@H]3CCN(CC(F)F)C[C@H]4CC[C@@H](C(=O)N5CC(c6cc[nH]c(=O)c6)CC56CC6)N4C3=O)cc2c1 (stereo partly drawn) [Compound 335, S,S′-(((((7-(((5S,8S,10aR)-2-(2,2-difluoroethyl)-6-oxo-8-(6-(2-oxo-1,2-dihydropyridin-4-yl)-4-azaspiro[2.4]heptane-4-carbonyl)decahydropyrrolo [1,2-a][1,4]diazocin-5-yl)carbamoyl)naphthalen-2-yl)difluoromethyl)phosphoryl)bis(oxy))bis(ethane-2,1-diyl))dibutanethioate] | 1000 to 3000 | ≤ 100 | – | –
6 | Cc1ccc2[nH]nc(C(=O)N3CC[C@H]4CC[C@@H](C(=O)N(C)C)N4C(=O)[C@@H](NC(=O)c4cc5cc(CP(=O)(N[C@@H](C)C(=O)OC(C)C)Oc6ccccc6)ccc5s4)C3)c2c1 (stereo partly drawn) [Compound 337, isopropyl(((2-(((5S,8S,10aR)-8-(dimethylcarbamoyl)-3-(5-methyl-1H-indazole-3-carbonyl)-6-oxodecahydropyrrolo[1,2-a][1,5]diazocin-5-yl)carbamoyl)benzo [b]thiophen-5-yl)methyl)(phenoxy)phosphoryl)-L-alaninate] | > 3000 | > 3000 | – | –
7 | CC(C)(C)C(=O)OCOP(=O)(OCOC(=O)C(C)(C)C)C(F)(F)c1ccc2ccc(C(=O)NC3CN(CC(F)F)CCC4CCC(C(=O)N5CC(C#N)C(c6cc(F)cc(F)c6)C5)N4C3=O)cc2c1 [Compound 344, ((((7-(((5S,8S,10aR)-8-((rel-trans)-3-cyano-4-(3,5-difluorophenyl)pyrrolidine-1-carbonyl)-3-(2,2-difluoroethyl)-6-oxodecahydropyrrolo[1,2-a][1,5]diazocin-5-yl)carbamoyl)naphthalen-2-yl)difluoromethyl)phosphoryl)bis(oxy)) bis(methylene) bis(2,2-dimethylpropanoate)] | – | – | 1000 to 3000 | 100 to 1000
8 | CC(C)(C)C(=O)OCOP(=O)(OCOC(=O)C(C)(C)C)C(F)(F)c1ccc2ccc(C(=O)NC3CN(CC(F)F)CCC4CCC(C(=O)N5CCC(c6ccccc6)C(C#N)C5)N4C3=O)cc2c1 [Compound 345, ((((7-(((5S,8S,10aR)-8-((rel-trans)-3-cyano-4-phenylpiperidine-1-carbonyl)-3-(2,2-difluoroethyl)-6-oxodecahydropyrrolo[1,2-a][1,5]diazocin-5-yl)carbamoyl)naphthalen-2-yl)difluoromethyl)phosphoryl)bis(oxy)) bis(methylene) bis(2,2-dimethylpropanoate)] | – | – | 1000 to 3000 | 100 to 1000
9 | CCCC(=O)SCCOP(=O)(OCCSC(=O)CCC)C(F)(F)c1ccc2ccc(C(=O)N[C@H]3CN(CC(F)F)CC[C@H]4CC[C@@H](C(=O)N(C)C5CCN(S(C)(=O)=O)CC5)N4C3=O)cc2c1 [Compound 347, S,S′-(((((7-(((5S,8S,10aR)-3-(2,2-difluoroethyl)-8-(methyl(1-(methylsulfonyl)piperidin-4-yl)carbamoyl)-6-oxodeca hydropyrrolo[1,2-a][1,5]diazocin-5-yl)carbamoyl)naphthalen-2-yl)difluoromethyl)phosphoryl)bis(oxy))bis(ethane-2,1-diyl))dibutanethioate] | 100 to 1000 | 100 to 1000 | – | –
10 | CC(C)(C)C(=O)OCOP(=O)(OCOC(=O)C(C)(C)C)C(F)(F)c1ccc2sc(C(=O)N[C@H]3CN(CC(F)F)CC[C@H]4CC[C@@H](C(=O)N5CC(C(=O)N6CCOCC6)C5)N4C3=O)cc2c1 [Compound 350, ((((2-(((5S,8S,10aR)-3-(2,2-difluoroethyl)-8-(3-(morpholine-4-carbonyl)azetidine-1-carbonyl)-6-oxodecahydropyrrolo[1,2-a][1,5]diazocin-5-yl)carbamoyl)benzo[b]thiophen-5-yl)difluoromethyl)phosphoryl)bis (oxy))bis(methylene) bis(2,2-dimethylpropanoate)] | ≤ 100 | – | – | 100 to 1000
11 | CC(C)(C)C(=O)OCOP(=O)(OCOC(=O)C(C)(C)C)C(F)(F)c1ccc2sc(C(=O)N[C@H]3CN(CC(F)F)CC[C@H]4CC[C@@H](C(=O)N5CC(C(=O)N6CCOCC6)C5)N4C3=O)cc2c1 [Compound 351, ((((2-(((5S,8S,10aR)-3-(2,2-difluoroethyl)-8-(3-(morpholine-4-carbonyl)azetidine-1-carbonyl)-6-oxodecahydropyrrolo[1,2-a][1,5]diazocin-5-yl)carbamoyl)benzo[b]thiophen-5-yl)difluoromethyl)phosphoryl)bis (oxy))bis(methylene) bis(2,2-dimethylpropanoate)] | – | – | ≤ 100 | 1000 to 3000
